Laboratory results published in PubChem BioAssay AID602191 (Broad Institute, 2012).
Active and inactive are the calls of the source.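 Rule for the calls: active = fitted curve reaches 40% activation at a concentration no higher than the top valid tested dose; inconclusive = flat fit between 30% and 70% activation, or poor fit; inactive = uptake decrease, flat fit within 30% of zero, the rest.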

molecular target: Scavenger receptor class B member 1 (Mus musculus) (UniProt Q61009); experiment: activators of SR-BI-mediated HDL uptake, dose response, cell-based, ldlA[mSR-BI] CHO, DiI fluorescence, cherry-pick (AID 602191); conditions: ldlA[mSR-BI] CHO cells, 3 h;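 note: cell fluorescence from internalized DiI-labeled HDL after washing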;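 for AC40: potency of activators raising HDL uptake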;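 for activation (HDL uptake increase): 0% = median of DMSO wells and 100% = twice the DMSO signal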
Sequence (Q61009 whole entry, looked up): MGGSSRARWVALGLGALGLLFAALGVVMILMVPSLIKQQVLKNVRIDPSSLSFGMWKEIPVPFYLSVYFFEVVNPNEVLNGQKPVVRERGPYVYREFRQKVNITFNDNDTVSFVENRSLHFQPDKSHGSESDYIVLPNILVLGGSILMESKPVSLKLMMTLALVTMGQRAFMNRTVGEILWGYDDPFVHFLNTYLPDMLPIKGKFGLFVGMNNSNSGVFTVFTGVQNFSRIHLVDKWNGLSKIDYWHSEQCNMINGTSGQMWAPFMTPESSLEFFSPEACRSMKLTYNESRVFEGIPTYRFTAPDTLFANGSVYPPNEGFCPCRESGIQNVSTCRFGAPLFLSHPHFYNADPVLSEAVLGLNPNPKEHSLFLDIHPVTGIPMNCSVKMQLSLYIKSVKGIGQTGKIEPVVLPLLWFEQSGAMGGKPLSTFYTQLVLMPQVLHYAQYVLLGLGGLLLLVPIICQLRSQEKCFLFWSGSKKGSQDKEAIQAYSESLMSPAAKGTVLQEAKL

Question: `CC(C)NC(=O)C1(O)c2ccccc2NC(=O)N1c1ccc(Cl)c(Cl)c1` (stereo not given) was tested. Which AC40 did it give?
Answer: The AC40 was > 35 µM (inactive).

Question: With `COc1ccc(CC(=O)N(C)Cc2ccc(C(C)(C)C)cc2)cc1S(=O)(=O)N1CCOCC1` as the compound, how does the AC40 read?
Answer: Its AC40 is > 35 µM (inactive).

Question: Which AC40 does the source give for `CN(C)C(=O)CCc1ccc2c3c([nH]c2c1)[C@]1(CCC2CCCC2)[C@@H](C(=O)N2CCOCC2)C[C@H](CC(=O)NCC24CC5CC(CC(C5)C2)C4)C(=O)N1CC3` here?
Answer: Its AC40 is > 35 µM (inactive).

same assay, conditions: ldlA[mSR-BI] CHO cells, 3 h, at 35 µM (top of the series)

Question: Which activation (HDL uptake increase) does the source give for `Cc1c(/C(O)=C2/C(=O)C(=O)N(CCN3CCOCC3)C2c2cccnc2)cnn1-c1ccccc1` (stereo not given) here?
Answer: Its activation (HDL uptake increase) is -0.755% (inactive).

Question: How did the activation (HDL uptake increase) turn out when `CCN1CCN(C(=O)C2CCC(=O)N(Cc3cccc(C(F)(F)F)c3)C2)CC1` (stereo not given) was run?
Answer: The activation (HDL uptake increase) was -0.502% (inactive).

Question: How did the activation (HDL uptake increase) turn out when `C[C@]12C[C@H](O)[C@H]3[C@@H](CCC4=CC(=O)CC[C@@]43C)[C@@H]1CC[C@@H]2C(=O)CO` was run?
Answer: The activation (HDL uptake increase) was 6.28% (inactive).

Question: Which activation (HDL uptake increase) does the source give for `CCCCN(C(=O)c1cc2c(s1)CCC2)c1c(N)n(CC(C)C)c(=O)[nH]c1=O` here?
Answer: The activation (HDL uptake increase) was -6.82% (inactive).

Question: For `Cc1ccc(S(=O)(=O)N(c2cccc(C)c2)C2CCS(=O)(=O)C2)cc1` (stereo not given), which activation (HDL uptake increase) is on record?
Answer: Its activation (HDL uptake increase) is -9.17% (inactive).

Question: For `Cc1ccc(SCC(=O)NNC(=O)CCS(=O)(=O)c2ccc(C)cc2)cc1`, which activation (HDL uptake increase) is on record?
Answer: The activation (HDL uptake increase) was 0.551% (inactive).

Question: Which activation (HDL uptake increase) does the source give for `CCN1C[C@@H]2[C@@H]3C(=O)N(Cc4ccccc4)C(=O)[C@@H]3[C@](C)(C1=O)N2C(=O)c1ccc(Br)cc1` here?
Answer: The activation (HDL uptake increase) was 1.77% (inactive).

Question: `OC(Cc1ccccc1)(c1ccccc1)C1CN2CCC1CC2` (stereo not given) was tested. Which activation (HDL uptake increase) did it give?
Answer: The activation (HDL uptake increase) was -3.56% (inactive).

Question: For `CN(c1ccc(OCC(=O)OCC(=O)Nc2ccc([N+](=O)[O-])cc2)cc1)S(=O)(=O)c1cccs1`, which activation (HDL uptake increase) is on record?
Answer: Its activation (HDL uptake increase) is -13.3% (inactive).

Question: With `Cc1ccc(S(=O)(=O)N2CCOCC2)cc1C(=O)NCc1ccccc1CN1CCCC1` as the compound, how does the activation (HDL uptake increase) read?
Answer: Its activation (HDL uptake increase) is -7.63% (inactive).

Question: How did the activation (HDL uptake increase) turn out when `Cc1ccc(OCCOCCN(C)C)c(Cl)c1` was run?
Answer: The activation (HDL uptake increase) was 3.89% (inactive).

Question: For `Cc1nc2c3ccccc3nc(NNC(=O)CCC(=O)N3CCN(c4ccccc4)CC3)n2n1`, which activation (HDL uptake increase) is on record?
Answer: The activation (HDL uptake increase) was 6.41% (inactive).

Question: `COc1cccc(C(=O)COC(=O)CCC(=O)c2ccccc2)c1` was tested. Which activation (HDL uptake increase) did it give?
Answer: Its activation (HDL uptake increase) is -0.792% (inactive).

Question: Which activation (HDL uptake increase) does the source give for `COc1ccc(-n2nc(C(=O)NCC(=O)O)c3ccccc3c2=O)cc1` here?
Answer: Its activation (HDL uptake increase) is 11.7% (inactive).

Question: For `O=C(COc1ccc(C(=O)c2ccccc2)cc1)NC1CCCCC1`, which activation (HDL uptake increase) is on record?
Answer: The activation (HDL uptake increase) was -7.46% (inactive).

Question: Which activation (HDL uptake increase) does the source give for `COc1ccc(C(=O)Nc2nnc(SCC(=O)Nc3ccc(NC(C)=O)cc3)s2)c(OC)c1` here?
Answer: The activation (HDL uptake increase) was -6.9% (inactive).

Question: How did the activation (HDL uptake increase) turn out when `CCOC(=O)N1CCC(NC(=S)Nc2ccc3nc(N4CCN(C)CC4)cc(C)c3c2)CC1` was run?
Answer: The activation (HDL uptake increase) was -25.6% (inactive).

Question: For `O=C(COC(=O)C1CCN(/C=C/C(=O)C(F)(F)F)CC1)Nc1cccc(F)c1`, which activation (HDL uptake increase) is on record?
Answer: The activation (HDL uptake increase) was -7.38% (inactive).

Question: With `O=C(CC1C[C@H](C(=O)N2CCOCC2)[C@@]2(CCC3CCCC3)c3[nH]c4ccccc4c3CCN2C1=O)NCc1cccc(C(F)(F)F)c1` (stereo not given in full) as the compound, how does the activation (HDL uptake increase) read?
Answer: The activation (HDL uptake increase) was 25.1% (inactive).

Question: Which activation (HDL uptake increase) does the source give for `CSCCC(NC(=O)c1ccco1)C(=O)NC1CCC(C)CC1` (stereo not given) here?
Answer: The activation (HDL uptake increase) was -3.23% (inactive).

Question: With `O=C(CCN1C(=O)/C(=C\C=C\c2ccccc2)SC1=S)Nc1ccc(C(=O)O)cc1` as the compound, how does the activation (HDL uptake increase) read?
Answer: The activation (HDL uptake increase) was -14.1% (inactive).

Question: With `COc1ccc(CCNS(=O)(=O)c2cn(C)c(=O)n(C)c2=O)cc1OC` as the compound, how does the activation (HDL uptake increase) read?
Answer: The activation (HDL uptake increase) was -3.3% (inactive).

Question: How did the activation (HDL uptake increase) turn out when `O=S(=O)(Nc1ccccc1OC(F)F)c1ccc(S(=O)(=O)N2CCCC2)cc1` was run?
Answer: The activation (HDL uptake increase) was -11.8% (inactive).

Question: With `O=C(COC(=O)/C=C/c1cccc(Cl)c1)NCCc1ccc(Cl)cc1Cl` as the compound, how does the activation (HDL uptake increase) read?
Answer: The activation (HDL uptake increase) was -1.95% (inactive).

Question: How did the activation (HDL uptake increase) turn out when `CCOC(=O)C1=C(COC(=O)[C@H](C)NS(=O)(=O)c2ccc(NC(C)=O)cc2)NC(=O)NC1C` (stereo not given in full) was run?
Answer: The activation (HDL uptake increase) was -9.73% (inactive).

Question: For `CCOc1cc(N2CCOCC2)c(OCC)cc1NC(=O)CSc1cccc[n+]1[O-]`, which activation (HDL uptake increase) is on record?
Answer: The activation (HDL uptake increase) was -6.79% (inactive).

Question: How did the activation (HDL uptake increase) turn out when `COCCCNC(=O)CC(NS(=O)(=O)c1ccc(OC)cc1)c1ccc(OC)cc1` (stereo not given) was run?
Answer: Its activation (HDL uptake increase) is -4.2% (inactive).

Question: `O=C(NCCCc1ccccc1)c1ccc(CS(=O)Cc2ccc(Cl)cc2)o1` (stereo not given) was tested. Which activation (HDL uptake increase) did it give?
Answer: The activation (HDL uptake increase) was 5.61% (inactive).

Question: With `CCOC(=O)N1CCN(C(=O)c2nn(C)c3c2CSc2ccccc2-3)CC1` as the compound, how does the activation (HDL uptake increase) read?
Answer: The activation (HDL uptake increase) was -12.2% (inactive).

Question: How did the activation (HDL uptake increase) turn out when `COc1ccc(CCN2CC(C(=O)NCc3cnn(C(C)C)c3)CCC2=O)cc1` (stereo not given) was run?
Answer: The activation (HDL uptake increase) was -1.83% (inactive).

Question: How did the activation (HDL uptake increase) turn out when `COc1ccc(N(C(=O)CNC(=O)c2ccco2)C(C(=O)NC2CCCCC2)c2ccncc2)cc1` (stereo not given) was run?
Answer: The activation (HDL uptake increase) was 4.83% (inactive).

Question: Which activation (HDL uptake increase) does the source give for `CC1CCCC(NC(=O)CSc2nncs2)C1C` (stereo not given) here?
Answer: Its activation (HDL uptake increase) is -4.42% (inactive).

Question: `O=C(C[C@H]1C[C@H](C(=O)N2CCOCC2)[C@@]2(CCC3CCCC3)c3[nH]c4ccc(Cl)cc4c3CCN2C1=O)NCc1ccco1` was tested. Which activation (HDL uptake increase) did it give?
Answer: Its activation (HDL uptake increase) is -3.23% (inactive).

Question: With `COc1ccccc1C(=O)NC(=O)COC(=O)c1cccc(NC(C)=O)c1` as the compound, how does the activation (HDL uptake increase) read?
Answer: The activation (HDL uptake increase) was -5.38% (inactive).

Question: With `CC(C)(C)OC(=O)C[C@H]1C/C=C\C[C@H](CC(=O)NCCO)C(=O)NCCOC1=O` as the compound, how does the activation (HDL uptake increase) read?
Answer: The activation (HDL uptake increase) was -2.75% (inactive).

Question: How did the activation (HDL uptake increase) turn out when `CCN(CC)C(=O)C1CC(=O)N(c2ccc(OC)cc2)C1c1ccc(OC)cc1` (stereo not given) was run?
Answer: The activation (HDL uptake increase) was -8.42% (inactive).

Question: Which activation (HDL uptake increase) does the source give for `CCOc1ccc(N(C(=O)c2ccc3c(c2)OCO3)C2C=CS(=O)(=O)C2)cc1` (stereo not given) here?
Answer: The activation (HDL uptake increase) was -7.61% (inactive).

Question: `C/C=C(\C)C(=O)OC1CC(C)(C)C[C@H]2C3=CC[C@@H]4[C@@]5(C)CCC(O[C@@H]6O[C@@H](C(=O)O)[C@@H](O)C(O[C@@H]7OC[C@H](O)[C@@H](O)[C@@H]7O[C@@H]7OC(CO)C(O)[C@@H](O)[C@@H]7O)C6O[C@@H]6OC(CO)C(O)C(O)C6O)[C@@](C)(CO)[C@@H]5CC[C@]4(C)[C@]3(C)CC(O)[C@@]12CO` (stereo not given in full) was tested. Which activation (HDL uptake increase) did it give?
Answer: Its activation (HDL uptake increase) is -2.08% (inactive).

Question: How did the activation (HDL uptake increase) turn out when `CC(=O)N1CCN(C(=O)c2ccc(-n3c(C)ccc3C)cc2)CC1` was run?
Answer: The activation (HDL uptake increase) was -10.8% (inactive).

Question: For `C[C@@H]1CN([C@H](C)CO)C(=O)c2cc(NC(=O)Nc3ccc(C(F)(F)F)cc3)ccc2O[C@H]1CN(C)Cc1ccc(Cl)c(Cl)c1`, which activation (HDL uptake increase) is on record?
Answer: The activation (HDL uptake increase) was -0.198% (inactive).

Question: With `CCCCCC1CC(CC(=O)O)C(=O)O1` (stereo not given) as the compound, how does the activation (HDL uptake increase) read?
Answer: Its activation (HDL uptake increase) is -5.76% (inactive).

Question: `Cc1ccc(N2C(=O)C(Cc3ccc(O)cc3)NC2=S)cc1C` (stereo not given) was tested. Which activation (HDL uptake increase) did it give?
Answer: Its activation (HDL uptake increase) is -11.4% (inactive).

Question: How did the activation (HDL uptake increase) turn out when `O=C(NNC(=S)Nc1cccc2ccccc12)c1cccc(Br)c1` was run?
Answer: Its activation (HDL uptake increase) is -30.7% (inactive).

Question: How did the activation (HDL uptake increase) turn out when `O=C(COC(=O)c1cccs1)Nc1cccc(Cl)c1` was run?
Answer: Its activation (HDL uptake increase) is -3.43% (inactive).

Question: How did the activation (HDL uptake increase) turn out when `Cc1cccn2c(CN[C@@H]3CCCC[C@H]3c3ccccc3)c(C(=O)N3CCOCC3)nc12` was run?
Answer: Its activation (HDL uptake increase) is -6.75% (inactive).

Question: Which activation (HDL uptake increase) does the source give for `COc1ccccc1N1C(=O)CCC1(C#N)c1ccc(Br)cc1` (stereo not given) here?
Answer: Its activation (HDL uptake increase) is 9.71% (inactive).

Question: With `CN1OC[C@@H]2CN[C@H](c3cccc(-c4cc(Cl)cc(Cl)c4)c3)C[C@@H]21` as the compound, how does the activation (HDL uptake increase) read?
Answer: Its activation (HDL uptake increase) is 5.62% (inactive).

Question: `CCN(CC(=O)Nc1c(F)cccc1F)C(=O)C1CCN(S(=O)(=O)c2ccc(F)cc2)CC1` was tested. Which activation (HDL uptake increase) did it give?
Answer: Its activation (HDL uptake increase) is 11.6% (inactive).

Question: `O=C1N[C@@H](c2ccccc2)COC(=O)[C@H](Cc2ccc(F)cc2)CC/C=C/C[C@H]1CC(=O)N(CCO)Cc1ccccc1` was tested. Which activation (HDL uptake increase) did it give?
Answer: The activation (HDL uptake increase) was -5.36% (inactive).

Question: `CCN(CC(=O)Nc1ccc(OC)cc1)C(=O)c1ccc(=O)n(Cc2ccccc2)n1` was tested. Which activation (HDL uptake increase) did it give?
Answer: Its activation (HDL uptake increase) is -12.4% (inactive).

Question: For `O=C(NNC(=O)C1CC(c2cccnc2)=NO1)Nc1cccc(F)c1` (stereo not given), which activation (HDL uptake increase) is on record?
Answer: The activation (HDL uptake increase) was -5.33% (inactive).

Question: For `O=C(OCc1ccccc1)c1cccc(-c2nnc(-c3ccccc3)o2)c1`, which activation (HDL uptake increase) is on record?
Answer: The activation (HDL uptake increase) was -15.9% (inactive).
